Reference: patent US20070049564A1 (Wyeth, priority 2005, published 2007)
Converted amounts (≈) assume the structure as drawn. Like-named read-outs stand apart in the source and are kept apart here.

Key:
Experiment in all cases: MIC, broth microdilution
E. coli GC 4560 = settings: Escherichia coli
S. aureus GC 6335 = settings: Staphylococcus aureus
E. coli GC 2271 = settings: Escherichia coli
E. coli GC 2203 = settings: Escherichia coli
E. faecium GC 4556 = settings: Enterococcus faecium
S. typhimurium GC 2172 = settings: Salmonella enterica, TYPHIMURIUM
E. coli GC 2234 = settings: Escherichia coli
E. coli GC 2235 = settings: Escherichia coli
E. coli GC 6465 = settings: Escherichia coli
E. coli GC 2270 = settings: Escherichia coli
S. pyogenes GC 4563 = settings: Streptococcus pyogenes
E. coli GC 3226 = settings: Escherichia coli
Method: Antimicrobial susceptibility testing. The in vitro activities of the antibiotics are determined by the broth microdilution method as recommended by the National Committee for Clinical Laboratory Standards (NCCLS) (1). Mueller-Hinton II broth (MHBII)(BBL Cockeysville, Md.) is the medium employed in the testing procedures. Microtiter plates containing serial dilutions of each antimicrobial agent are inoculated with each organism to yield the appropriate density (10^5 CFU/ml) in a 100 μl final volume. The plates are incubated for 18-22 hours at 35° C. in ambient air.
Representative compounds were first incubated in mouse serum for an hour prior to the in vitro testing against a panel of selected gram-positive and gram-negative bacteria strains. All compounds were also pre-incubated in water for an hour prior to testing as control. Representative compounds of Formula I were incubated in human serum prior to MIC determination.

E. coli GC 2233 = settings: Escherichia coli
E. coli GC 1073 = settings: Escherichia coli
S. aureus GC 6466 = settings: Staphylococcus aureus
S. aureus GC 6467 = settings: Staphylococcus aureus
S. aureus GC 1079 = settings: Staphylococcus aureus
S. aureus GC 6469 = settings: Staphylococcus aureus
E. coli GC 4559 = settings: Escherichia coli
S. agalactiae GC 4564 = settings: Streptococcus agalactiae
[1] = GC4560, read-out: MINIMAL INHIBITORY CONCENTRATION MIC, pre-incubated in Mouse Serum
[2] = GC4560, read-out: MINIMAL INHIBITORY CONCENTRATION MIC, pre-incubated in Water
[3] = GC6335, read-out: MINIMAL INHIBITORY CONCENTRATION MIC, pre-incubated in Mouse Serum
[4] = GC6335, read-out: MINIMAL INHIBITORY CONCENTRATION MIC, pre-incubated in Water
[5] = GC2271, read-out: MINIMAL INHIBITORY CONCENTRATION MIC, pre-incubated in Mouse Serum
[6] = GC2271, read-out: MINIMAL INHIBITORY CONCENTRATION MIC, pre-incubated in Water
[7] = GC2203, read-out: MINIMAL INHIBITORY CONCENTRATION MIC, pre-incubated in Mouse Serum
[8] = GC2203, read-out: MINIMAL INHIBITORY CONCENTRATION MIC, pre-incubated in Water
[9] = GC4556, read-out: MINIMAL INHIBITORY CONCENTRATION MIC, pre-incubated in Mouse Serum
[10] = GC4556, read-out: MINIMAL INHIBITORY CONCENTRATION MIC, pre-incubated in Water
[11] = read-out: MINIMAL INHIBITORY CONCENTRATION MIC, pre-incubated in Mouse Serum
[12] = read-out: MINIMAL INHIBITORY CONCENTRATION MIC, pre-incubated in Water
[13] = GC2234, read-out: MINIMAL INHIBITORY CONCENTRATION MIC, pre-incubated in Mouse Serum
[14] = GC2234, read-out: MINIMAL INHIBITORY CONCENTRATION MIC, pre-incubated in Water
[15] = GC2235, read-out: MINIMAL INHIBITORY CONCENTRATION MIC, pre-incubated in Mouse Serum
[16] = GC2235, read-out: MINIMAL INHIBITORY CONCENTRATION MIC, pre-incubated in Water
[17] = GC6465, read-out: MINIMAL INHIBITORY CONCENTRATION MIC, pre-incubated in Mouse Serum
[18] = GC6465, read-out: MINIMAL INHIBITORY CONCENTRATION MIC, pre-incubated in Water
[19] = GC2270, read-out: MINIMAL INHIBITORY CONCENTRATION MIC, pre-incubated in Mouse Serum
[20] = GC2270, read-out: MINIMAL INHIBITORY CONCENTRATION MIC, pre-incubated in Water
[21] = GC4563, read-out: MINIMAL INHIBITORY CONCENTRATION MIC, pre-incubated in Mouse Serum
[22] = GC4563, read-out: MINIMAL INHIBITORY CONCENTRATION MIC, pre-incubated in Water
[23] = GC3226, read-out: MINIMAL INHIBITORY CONCENTRATION MIC, pre-incubated in Mouse Serum
[24] = GC3226, read-out: MINIMAL INHIBITORY CONCENTRATION MIC, pre-incubated in Water
[25] = GC2233, read-out: MINIMAL INHIBITORY CONCENTRATION MIC, pre-incubated in Mouse Serum
[26] = GC2233, read-out: MINIMAL INHIBITORY CONCENTRATION MIC, pre-incubated in Water
[27] = GC1073, read-out: MINIMAL INHIBITORY CONCENTRATION MIC, pre-incubated in Mouse Serum
[28] = GC1073, read-out: MINIMAL INHIBITORY CONCENTRATION MIC, pre-incubated in Water
[29] = GC6466, read-out: MINIMAL INHIBITORY CONCENTRATION MIC, pre-incubated in Mouse Serum
[30] = GC6466, read-out: MINIMAL INHIBITORY CONCENTRATION MIC, pre-incubated in Water
[31] = GC6467, read-out: MINIMAL INHIBITORY CONCENTRATION MIC, pre-incubated in Mouse Serum
[32] = GC6467, read-out: MINIMAL INHIBITORY CONCENTRATION MIC, pre-incubated in Water
[33] = GC1079, read-out: MINIMAL INHIBITORY CONCENTRATION MIC, pre-incubated in Mouse Serum
[34] = GC1079, read-out: MINIMAL INHIBITORY CONCENTRATION MIC, pre-incubated in Water
[35] = GC6469, read-out: MINIMAL INHIBITORY CONCENTRATION MIC, pre-incubated in Mouse Serum
[36] = GC6469, read-out: MINIMAL INHIBITORY CONCENTRATION MIC, pre-incubated in Water
[37] = GC4559, read-out: MINIMAL INHIBITORY CONCENTRATION MIC, pre-incubated in Mouse Serum
[38] = GC4559, read-out: MINIMAL INHIBITORY CONCENTRATION MIC, pre-incubated in Water
[39] = GC4564, read-out: MINIMAL INHIBITORY CONCENTRATION MIC, pre-incubated in Mouse Serum
[40] = GC4564, read-out: MINIMAL INHIBITORY CONCENTRATION MIC, pre-incubated in Water

Structure (SMILES): CCCCN(CC(=O)Nc1cc(N(C)C)c2c(c1O)C(=O)C1=C(O)[C@]3(O)C(=O)C(C(N)=O)=C(O)[C@@H](N(C)C)[C@@H]3C[C@@H]1C2)C(=O)OCOC(=O)c1ccc(-c2ccccc2)cc1 [Example 21, ({[(2-{[(5aR,6aS,7S,10aS)-9-(aminocarbonyl)-4,7-bis(dimethylamino)-1,8,10a,11-tetrahydroxy-10,12-dioxo-5,5a,6,6a,7,10,10a,12-octahydrotetracen-2-yl]amino}-2-oxoethyl)(butyl)amino]carbonyl}oxy)methyl 1,1′-biphenyl-4-carboxylate]
- MIC (E. coli GC 4560; [1]): 0.25 µg/mL (≈ 0.298 µM)
- MIC (E. coli GC 4560; [2]): > 64 µg/mL
- MIC (S. aureus GC 6335; [3]): 2 µg/mL (≈ 2.38 µM)
- MIC (S. aureus GC 6335; [4]): 64 µg/mL (≈ 76.2 µM)
- MIC (E. coli GC 2271; [5]): 0.5 µg/mL (≈ 0.595 µM)
- MIC (E. coli GC 2271; [6]): > 64 µg/mL
- MIC (E. coli GC 2203; [7]): 0.5 µg/mL (≈ 0.595 µM)
- MIC (E. coli GC 2203; [8]): > 64 µg/mL
- MIC (E. faecium GC 4556; [9]): 2 µg/mL (≈ 2.38 µM)
- MIC (E. faecium GC 4556; [10]): 64 µg/mL (≈ 76.2 µM)
- MIC (S. typhimurium GC 2172; [11]): 4 µg/mL (≈ 4.76 µM)
- MIC (S. typhimurium GC 2172; [12]): > 64 µg/mL
- MIC (E. coli GC 2234; [13]): 0.5 µg/mL (≈ 0.595 µM)
- MIC (E. coli GC 2234; [14]): > 64 µg/mL
- MIC (E. coli GC 2235; [15]): 0.5 µg/mL (≈ 0.595 µM)
- MIC (E. coli GC 2235; [16]): > 64 µg/mL
- MIC (E. coli GC 6465; [17]): 4 µg/mL (≈ 4.76 µM)
- MIC (E. coli GC 6465; [18]): > 64 µg/mL
- MIC (E. coli GC 2270; [19]): 1 µg/mL (≈ 1.19 µM)
- MIC (E. coli GC 2270; [20]): > 64 µg/mL
- MIC (S. pyogenes GC 4563; [21]): 0.25 µg/mL (≈ 0.298 µM)
- MIC (S. pyogenes GC 4563; [22]): 0.12 µg/mL (≈ 0.143 µM)
- MIC (E. coli GC 3226; [23]): 8 µg/mL (≈ 9.52 µM)
- MIC (E. coli GC 3226; [24]): > 64 µg/mL
- MIC (E. coli GC 2233; [25]): 1 µg/mL (≈ 1.19 µM)
- MIC (E. coli GC 2233; [26]): > 64 µg/mL
- MIC (E. coli GC 1073; [27]): 1 µg/mL (≈ 1.19 µM)
- MIC (E. coli GC 1073; [28]): > 64 µg/mL
- MIC (S. aureus GC 6466; [29]): 1 µg/mL (≈ 1.19 µM)
- MIC (S. aureus GC 6466; [30]): 64 µg/mL (≈ 76.2 µM)
- MIC (S. aureus GC 6467; [31]): 4 µg/mL (≈ 4.76 µM)
- MIC (S. aureus GC 6467; [32]): > 64 µg/mL
- MIC (S. aureus GC 1079; [33]): 4 µg/mL (≈ 4.76 µM)
- MIC (S. aureus GC 1079; [34]): > 64 µg/mL
- MIC (S. aureus GC 6469; [35]): 4 µg/mL (≈ 4.76 µM)
- MIC (S. aureus GC 6469; [36]): > 64 µg/mL
- MIC (E. coli GC 4559; [37]): 1 µg/mL (≈ 1.19 µM)
- MIC (E. coli GC 4559; [38]): > 64 µg/mL
- MIC (S. agalactiae GC 4564; [39]): 0.5 µg/mL (≈ 0.595 µM)
- MIC (S. agalactiae GC 4564; [40]): 8 µg/mL (≈ 9.52 µM)

Structure (SMILES): CCCCN(CC(=O)Nc1cc(N(C)C)c2c(c1O)C(=O)C1=C(O)[C@]3(O)C(=O)C(C(N)=O)=C(O)[C@@H](N(C)C)[C@@H]3C[C@@H]1C2)C(=O)OCOC(=O)c1cc(C)cc(C)c1 [Example 22, ({[(2-{[(5aR,6aS,7S,10aS)-9-(aminocarbonyl)-4,7-bis(dimethylamino)-1,8,10a,11-tetrahydroxy-10,12-dioxo-5,5a,6,6a,7,10,10a,12-octahydrotetracen-2-yl]amino}-2-oxoethyl)(butyl)amino]carbonyl}oxy)methyl 3,5-dimethylbenzoate]
- MIC (E. coli GC 4560; [1]): 0.5 µg/mL (≈ 0.631 µM)
- MIC (E. coli GC 4560; [2]): > 64 µg/mL
- MIC (S. aureus GC 6335; [3]): 2 µg/mL (≈ 2.53 µM)
- MIC (S. aureus GC 6335; [4]): 8 µg/mL (≈ 10.1 µM)
- MIC (E. coli GC 2271; [5]): 1 µg/mL (≈ 1.26 µM)
- MIC (E. coli GC 2271; [6]): > 64 µg/mL
- MIC (E. coli GC 2203; [7]): 1 µg/mL (≈ 1.26 µM)
- MIC (E. coli GC 2203; [8]): > 64 µg/mL
- MIC (E. faecium GC 4556; [9]): 2 µg/mL (≈ 2.53 µM)
- MIC (E. faecium GC 4556; [10]): 64 µg/mL (≈ 80.8 µM)
- MIC (S. typhimurium GC 2172; [11]): 8 µg/mL (≈ 10.1 µM)
- MIC (S. typhimurium GC 2172; [12]): > 64 µg/mL
- MIC (E. coli GC 2234; [13]): 1 µg/mL (≈ 1.26 µM)
- MIC (E. coli GC 2234; [14]): > 64 µg/mL
- MIC (E. coli GC 2235; [15]): 1 µg/mL (≈ 1.26 µM)
- MIC (E. coli GC 2235; [16]): > 64 µg/mL
- MIC (E. coli GC 6465; [17]): 8 µg/mL (≈ 10.1 µM)
- MIC (E. coli GC 6465; [18]): > 64 µg/mL
- MIC (E. coli GC 2270; [19]): 1 µg/mL (≈ 1.26 µM)
- MIC (E. coli GC 2270; [20]): > 64 µg/mL
- MIC (S. pyogenes GC 4563; [21]): 0.5 µg/mL (≈ 0.631 µM)
- MIC (S. pyogenes GC 4563; [22]): 1 µg/mL (≈ 1.26 µM)
- MIC (E. coli GC 3226; [23]): 8 µg/mL (≈ 10.1 µM)
- MIC (E. coli GC 3226; [24]): > 64 µg/mL
- MIC (E. coli GC 2233; [25]): 2 µg/mL (≈ 2.53 µM)
- MIC (E. coli GC 2233; [26]): > 64 µg/mL
- MIC (E. coli GC 1073; [27]): 2 µg/mL (≈ 2.53 µM)
- MIC (E. coli GC 1073; [28]): > 64 µg/mL
- MIC (S. aureus GC 6466; [29]): 0.5 µg/mL (≈ 0.631 µM)
- MIC (S. aureus GC 6466; [30]): 2 µg/mL (≈ 2.53 µM)
- MIC (S. aureus GC 6467; [31]): 4 µg/mL (≈ 5.05 µM)
- MIC (S. aureus GC 6467; [32]): > 64 µg/mL
- MIC (S. aureus GC 1079; [33]): 2 µg/mL (≈ 2.53 µM)
- MIC (S. aureus GC 1079; [34]): 32 µg/mL (≈ 40.4 µM)
- MIC (S. aureus GC 6469; [35]): 4 µg/mL (≈ 5.05 µM)
- MIC (S. aureus GC 6469; [36]): 64 µg/mL (≈ 80.8 µM)
- MIC (E. coli GC 4559; [37]): 2 µg/mL (≈ 2.53 µM)
- MIC (E. coli GC 4559; [38]): > 64 µg/mL
- MIC (S. agalactiae GC 4564; [39]): 1 µg/mL (≈ 1.26 µM)
- MIC (S. agalactiae GC 4564; [40]): 8 µg/mL (≈ 10.1 µM)
